These results are taken from patent US20230270713A1, “Administration of Resiniferatoxin For Treatment of Bladder Pain or Bladder Cancer” (Sorrento Therapeutics, Inc., priority 2020, published 2023).

Data set [1] deals with bladder cancer (TCC). The experiment in a line: Preliminary anti-cancer effect by bladder ultrasound in dogs with bladder cancer (Example D). In kind it is in vivo, dog. The method, then: Dogs with bladder cancer were treated with RTX as follows. Under general anesthesia, RTX was infused directly into the bladder using a foley catheter. RTX remained in the bladder for 30 minutes before removal.
The primary endpoint was assessment of improvement of lower urinary tract signs with a 4-point lower urinary tract symptom scale (character of urination/degree of straining; frequency of urination (daytime); frequency of urination (nighttime); and blood in urine). The secondary endpoints were anti-cancer effect, as measured by bladder ultrasound, and quality of life.

The subject of data set [2] is cats with FIC (Feline Idiopathic Cystitis). In words: VSOM in cats with Feline Idiopathic Cystitis. In kind it is in vivo, cat. The method, then: The effectiveness and safety of a single intravesical instillation with RTX was evaluated for the management of clinical and behavioral signs associated with non-obstructive FIC in cats. The primary effectiveness endpoint was the improvement in a Veterinary-specific Outcome Measure (VSOM) and Cystitis Events Survey on day 28.
The total VSOM is the sum of three individual VSOM scores that each have an integer value in the range of 1 to 5. Each individual VSOM score corresponds to a clinical sign/activity/behavior selected as relevant to FIC for an individual cat by the cat's owner or legal representative with the help of the Investigator. An example of a clinical sign/activity/behavior is pain or resentfulness on palpation. The minimum possible score for each individual VSOM score is 1, which indicates no problem, and the maximum is 5, which indicates an impossible activity/behavior or a maximum severity clinical sign. The minimum and maximum total VSOM scores are 3 and 15. On screening days (e.g., Day 0 and Day 28), the Investigator completed the VSOM questionnaire and assigned a score to each of the 3 clinical signs/activities/behaviours that were selected.
Treatment success was defined as “a reduction of at least 2 in total VSOM score at Day 3 and 28 compared to VSOM score at day 0.” A decrease of less than 2, no change, or an increase in total score was defined as treatment failure. Cats presenting an increase in any individual VSOM score were considered a treatment failure regardless of total VSOM score.
RTX was provided as a 25 μg/mL (2.4 mL) solution, formulated with polysorbate, glucose, and phosphate buffer, and diluted in saline to 1 μg/mL before instillation. Intravesical instillation: After the cat has reached an adequate anesthesia level, the perineal area was prepared using a standard aseptic technique. After preparation, a urinary catheter (type and size decided on a case by case basis) was placed using aseptic technique. Then, the urinary bladder was emptied and flushed with 20 ml of sterile saline. Once the flush solution was removed, the RTX solution was infused through the urinary catheter over 2 minutes. Once the total volume of the solution is infused, the solution was left in the urinary bladder for 20 min. At the end of this period the IVP (investigational veterinary product) solution was removed. Finally, the urinary catheter was removed, and the perineal area was flushed with 20 ml of saline. The total amount of solution removed from the bladder was recorded.
24 cats were treated and the cohorts and their respective IVP treatments are described in the table 9 below. The cohorts were populated and dosed sequentially. Cats enrolled in Cohorts 2, 3 and 4 were dosed at least 3 days after the previous cohort closed.

Data set [3] in a line: Adverse effects in dogs with bladder TCC (Example F). Conditions: 16 dogs with bladder TCC. In kind it is in vivo, dog. The method, then:
RTX was administered as a one-time treatment into the bladder on Day 0 with the option of repeating RTX at a future study day. A Foley urinary catheter was placed using a sterile standard technique. An abdominal ultrasound was concurrently performed to ensure that the tip of the catheter was in the bladder lumen. Urine was removed using a catheter tipped syringe.
RTX was diluted in 0.9% NaCl and then infused into the bladder. The catheter was then flushed with 5-6 mL of 0.9% NaCl to ensure the entire IVP volume was administered. The Foley catheter was capped and remained in place for a period of 30 minutes post-infusion. The bladder was then emptied prior to removal of the Foley catheter. The timing of recovery was managed on an individual basis, but it was recommended to initiate recovery approximately 10 minutes after RTX infusion.

Data set [4] is described as follows: Local tolerance and clinical observations after intravesical RTX in dogs. The class given is in vivo, dog. The note with it: single 25 or 250 mcg intravesical. The method, then:
Local tolerance and the pharmacokinetic (PK), and toxicokinetic (TK) profile of RTX in dogs was determined after a single instillation of RTX into the bladder of dogs (n=6). The RTX formulations were prepared using aseptic techniques in a biological safety cabinet (BSC) by mixing the appropriate amount of diluent with the appropriate amount of RTX. Dosing formulation concentrations used were 1 and 10 mcg/mL.
RTX was administered via intravesical instillation into the urinary bladder. The animals were given a single dose of 25 or 250 mcg/dose in a total volume of 25 mL on Day 1 over a period of 1 hour (±5 minutes). RTX and diluent were administered to the dogs under general anesthesia via a Foley catheter placed into the bladder for 1 hour (±5 minutes).
Observations for morbidity, mortality, injury, and the availability of food and water were conducted twice daily for all animals. Observations for clinical signs for all animals were conducted on Day 2. The observations included evaluation of the skin, fur, eyes, ears, nose, oral cavity, thorax, abdomen, external genitalia, limbs and feet, respiratory and circulatory effects, autonomic effects such as salivation, and nervous system effects including tremors, convulsions, reactivity to handling, and unusual behavior.

Where [5] appears, read: Overall (Cohorts 1-4), Day 28 vs Day 0.

With `C=C(C)[C@]12C[C@@H](C)[C@@]34O[C@](Cc5ccccc5)(O[C@@H]1[C@@H]3C=C(COC(=O)Cc1ccc(O)c(OC)c1)C[C@]1(O)C(=O)C(C)=C[C@@H]41)O2` [RTX, resiniferatoxin], the “Best overall tumor response: change in largest tumor diameter” value in data set [1] (Case 03-01, 9.0 kg dog, 25 ug (2.8 ug/kg), Day 84) is on record as −30%. Further, in data set [1] (Case 41-02, 38.8 kg dog, 50 ug (1.3 ug/kg) dosed twice 28 days apart, Day 28), the “Best Overall Response: tumor volume” value is on record as −24%. Further, the “VSOM, Maximum” value in data set [2] (25 μg (1 μg/mL), Day 0, n 6) came out at 12.0. In addition, in data set [2] (25 μg (1 μg/mL), Day 28, n 5), the “VSOM, Minimum” value is 0.0. Besides, in data set [2] (setting [5]), the “VSOM treatment failure, number of cats” value is recorded as 5 n; the “VSOM treatment success, number of cats” value was 17 n; the “VSOM treatment success, percent of cats” value is “(77.2%)”. In data set [3], the Tolerability entry is “very well tolerated” and the “dose dependence of the most commonly reported AE (emesis, diarrhea, anorexia)” value is listed as “did not appear to be dose dependent”. Also, in data set [3] (RTX 25-100 μg intravesical), the “AE anorexia, number of dogs” value is reported as 4 dogs; the “AE anorexia, percent of dogs” value was 25.0%; the “AE diarrhea, number of dogs” value amounted to 5 dogs; the “AE diarrhea, percent of dogs” value is on record as 31.3%. Moreover, in data set [3] (RTX 25-100 μg intravesical), the “AE emesis, number of dogs” value stood at 6 dogs; the “AE emesis, percent of dogs” value is listed as 37.5%; the “AE lethargy, number of dogs” value is 4 dogs; the “AE lethargy, percent of dogs” value turned out to be 25.0%. For the same compound, the “dogs with an SAE” value in data set [3] (SAE considered most likely related to tumor progression) is listed as 1 dog. Besides, the “severity of the most common AEs” value in data set [3] (except one anorexia event considered severe) is recorded as “mild to moderate (Grade 1 or 2)”. In addition, the “Tolerability, detailed clinical observations, body weight” value in data set [4] was “well tolerated and did not result in any detailed clinical observations or changes in body weight”.
